Experimental data: ChEMBL document CHEMBL1201861, “Genomics of Drug Sensitity in Cancer screening data, Wellcome Trust Sanger Institute”

Key:
Test in all cases: cells
NCI-H1648 = format: functional, cell-based, Homo sapiens; details: Homo sapiens, NCI-H1648;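 further: cell viability assay measuring inhibition of NCI-H1648 cell growth, from the Sanger screening data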
Description: SANGER: Inhibition of human NCI-H1648 cell growth in a cell viability assay.

S-117 = format: functional, cell-based, Homo sapiens; details: Homo sapiens, S-117
Description: SANGER: Inhibition of human S-117 cell growth in a cell viability assay.

TK-10 = format: functional, cell-based, Homo sapiens; details: Homo sapiens, TK-10;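 further: growth inhibition of TK-10 cells, read out in a cell viability assay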
Description: SANGER: Inhibition of human TK10 cell growth in a cell viability assay.

SK-PN-DW = format: functional, cell-based; details: Homo sapiens;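 further: growth inhibition measured with a viability assay on these cells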
Description: SANGER: Inhibition of human SK-PN-DW cell growth in a cell viability assay.

MKN-1 = format: functional, cell-based, Homo sapiens; details: Homo sapiens, MKN-1;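 further: growth inhibition of human MKN1 cells, read out by a cell viability measurement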
Description: SANGER: Inhibition of human MKN1 cell growth in a cell viability assay.

NB6 = format: functional, cell-based, Homo sapiens; details: Homo sapiens, NB6;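 further: growth inhibition of NB6 cells, read out by a cell viability assay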
Description: SANGER: Inhibition of human NB6 cell growth in a cell viability assay.

NCI-H1755 = format: functional, cell-based, Homo sapiens; details: Homo sapiens, NCI-H1755;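 further: cell viability readout used to measure growth inhibition of NCI-H1755 cells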
Description: SANGER: Inhibition of human NCI-H1755 cell growth in a cell viability assay.

NCI-H720 = format: functional, cell-based; details: Homo sapiens;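 further: growth inhibition of human NCI-H720 cells determined by a cell viability assay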
Description: SANGER: Inhibition of human NCI-H720 cell growth in a cell viability assay.

HCT-116 = format: functional, cell-based, Homo sapiens; details: Homo sapiens, HCT-116
Description: SANGER: Inhibition of human HCT-116 cell growth in a cell viability assay.

SK-HEP1 = format: functional, cell-based, Homo sapiens, SK-HEP-1; details: Homo sapiens, SK-HEP1;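 further: cell viability readout used to quantify reduction in proliferation of human SK-HEP-1 cells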
Description: SANGER: Inhibition of human SK-HEP-1 cell growth in a cell viability assay.

HOS = format: functional, cell-based, Homo sapiens; details: Homo sapiens, HOS;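 further: growth inhibition of human HOS cells, read out with a cell viability assay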
Description: SANGER: Inhibition of human HOS cell growth in a cell viability assay.

NCI-H441 = format: functional, cell-based; details: Homo sapiens;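 further: growth inhibition of NCI-H441 cells, read out with a cell viability assay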
Description: SANGER: Inhibition of human NCI-H441 cell growth in a cell viability assay.

T47D = format: functional, cell-based, Homo sapiens; details: Homo sapiens, T47D;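 further: growth inhibition of human T47D cells, measured with a cell viability assay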
Description: SANGER: Inhibition of human T47D cell growth in a cell viability assay.

ES5 = format: functional, cell-based, Homo sapiens; details: Homo sapiens, ES5;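 further: growth inhibition of human ES5 cells, read out by a cell viability assay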
HMV-2 cell line = format: functional, cell-based, Homo sapiens; details: Homo sapiens, HMV-2;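 further: growth inhibition of HMV-II cells, read out with a cell viability assay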
Description: SANGER: Inhibition of human HMV-II cell growth in a cell viability assay.

HOP-92 = format: functional, cell-based, Homo sapiens; details: Homo sapiens, HOP-92;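 further: cell viability readout, with IC50 reflecting inhibition of HOP-92 cell growth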
Description: SANGER: Inhibition of human HOP-92 cell growth in a cell viability assay.

SHP77 = format: functional, cell-based, Homo sapiens, SHP-77; details: Homo sapiens, SHP77;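 further: growth inhibition of human SHP-77 cells measured by a cell viability assay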
Description: SANGER: Inhibition of human SHP-77 cell growth in a cell viability assay.

QIMR-WIL = format: functional, cell-based; details: Homo sapiens;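 further: growth inhibition of QIMR-WIL cells, read out with a cell viability assay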
Description: SANGER: Inhibition of human QIMR-WIL cell growth in a cell viability assay.

KYSE-270 = format: functional, cell-based, Homo sapiens; details: Homo sapiens, KYSE-270;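 further: cell growth inhibition measured with a viability assay in the human KYSE-270 line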
Description: SANGER: Inhibition of human KYSE-270 cell growth in a cell viability assay.

SNU-5 = format: functional, cell-based; details: Homo sapiens;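 further: cell viability readout used to measure growth inhibition in human NCI-SNU-5 cells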
Description: SANGER: Inhibition of human NCI-SNU-5 cell growth in a cell viability assay.

CTB-1 = format: functional, cell-based; details: Homo sapiens
Description: SANGER: Inhibition of human CTB-1 cell growth in a cell viability assay.

GB-1 = format: functional, cell-based, Homo sapiens; details: Homo sapiens, GB-1;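 further: growth of GB-1 cells judged by a viability assay, IC50 marks the concentration inhibiting growth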
Description: SANGER: Inhibition of human GB-1 cell growth in a cell viability assay.

HCC1954 = format: functional, cell-based, Homo sapiens; details: Homo sapiens, HCC1954;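 further: growth inhibition of human HCC1954 cells, read out with a cell viability assay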
Description: SANGER: Inhibition of human HCC1954 cell growth in a cell viability assay.

GR-ST = format: functional, cell-based; details: Homo sapiens
Description: SANGER: Inhibition of human GR-ST cell growth in a cell viability assay.

SH-4 = format: functional, cell-based, Homo sapiens; details: Homo sapiens, SH-4;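 further: growth inhibition of SH-4 cells, read out with a cell viability assay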
Description: SANGER: Inhibition of human SH-4 cell growth in a cell viability assay.

NCI-H1155 = format: functional, cell-based; details: Homo sapiens;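 further: cell growth inhibition measured by a viability assay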
Description: SANGER: Inhibition of human NCI-H1155 cell growth in a cell viability assay.

NCI-H1792 = format: functional, cell-based, Homo sapiens; details: Homo sapiens, NCI-H1792;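 further: growth inhibition of human NCI-H1792 cells, read out as cell viability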
Description: SANGER: Inhibition of human NCI-H1792 cell growth in a cell viability assay.

TE-11 = format: functional, cell-based, Homo sapiens; details: Homo sapiens, TE-11;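 further: growth inhibition of human TE-11 cells, read out by a cell viability assay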
Description: SANGER: Inhibition of human TE-11 cell growth in a cell viability assay.

SW1573 = format: functional, cell-based, Homo sapiens; details: Homo sapiens, SW1573;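 further: growth inhibition of SW1573 cells, read out with a cell viability assay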
Description: SANGER: Inhibition of human SW1573 cell growth in a cell viability assay.

ACN = format: functional, cell-based, Homo sapiens; details: Homo sapiens, ACN;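 further: growth inhibition of the human ACN cell line, read out via cell viability testing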
Description: SANGER: Inhibition of human ACN cell growth in a cell viability assay.

HL-60 = format: functional, cell-based; details: Homo sapiens;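 further: growth inhibition of human HL-60 cells, read out with a cell viability assay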
Description: SANGER: Inhibition of human HL-60 cell growth in a cell viability assay.

no-11 = format: functional, cell-based, Homo sapiens; details: Homo sapiens;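 further: growth inhibition of human NO-11 cells, read out with a cell viability assay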
Description: SANGER: Inhibition of human no-11 cell growth in a cell viability assay.

HCE-4 = format: functional, cell-based, Homo sapiens; details: Homo sapiens, HCE-4;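 further: cell viability assay measuring inhibition of growth in the human HCE-4 cell line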
Description: SANGER: Inhibition of human HCE-4 cell growth in a cell viability assay.

A388 = format: functional, cell-based, Homo sapiens; details: Homo sapiens, A388;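 further: growth inhibition of human A388 cells, read out with a cell viability assay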
Description: SANGER: Inhibition of human A388 cell growth in a cell viability assay.

MKN-7 = format: functional, cell-based, Homo sapiens; details: Homo sapiens, MKN-7;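 further: growth inhibition of MKN-7 cells, read out with a cell viability assay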
Description: SANGER: Inhibition of human MKN7 cell growth in a cell viability assay.

Calu-3 = format: functional, cell-based, Homo sapiens; details: Homo sapiens, Calu-3;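 further: growth inhibition of human Calu-3 cells, determined with a cell viability assay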
Description: SANGER: Inhibition of human Calu-3 cell growth in a cell viability assay.

COLO-792 = format: functional, cell-based, Homo sapiens; details: Homo sapiens, COLO-792
Description: SANGER: Inhibition of human COLO-792 cell growth in a cell viability assay.

HEL = format: functional, cell-based, Homo sapiens; details: Homo sapiens, HEL;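 further: growth inhibition of HEL cells, read out with a cell viability assay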
Description: SANGER: Inhibition of human HEL cell growth in a cell viability assay.

GOTO = format: functional, cell-based, Homo sapiens; details: Homo sapiens, GOTO;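 further: growth inhibition of GOTO cells, read out by a cell viability assay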
Description: SANGER: Inhibition of human GOTO cell growth in a cell viability assay.

BCPAP = format: functional, cell-based, Homo sapiens; details: Homo sapiens, BCPAP;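 further: growth inhibition of BCPAP cells, read out in a cell viability assay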
Description: SANGER: Inhibition of human BCPAP cell growth in a cell viability assay.

KP-4 = format: functional, cell-based, Homo sapiens; details: Homo sapiens, KP-4; read-out: IC50;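 further: human KP-4 cells, with growth inhibition read out through a cell viability assay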
Description: SANGER: Inhibition of human KP-4 cell growth in a cell viability assay.

SK-MEL-2 = format: functional, cell-based, Homo sapiens; details: Homo sapiens, SK-MEL-2;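 further: growth inhibition of human SK-MEL-2 cells measured with a cell viability assay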
Description: SANGER: Inhibition of human SK-MEL-2 cell growth in a cell viability assay.

NB12 = format: functional, cell-based, Homo sapiens; details: Homo sapiens, NB12;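 further: growth inhibition of human NB12 cells, read out by a cell viability assay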
Description: SANGER: Inhibition of human NB12 cell growth in a cell viability assay.

NCI-H2122 = format: functional, cell-based, Homo sapiens; details: Homo sapiens, NCI-H2122;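 further: growth inhibition of the cells, read out with a cell viability assay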
Description: SANGER: Inhibition of human NCI-H2122 cell growth in a cell viability assay.

ESS-1 = format: functional, cell-based, Homo sapiens; details: Homo sapiens, ESS-1;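 further: growth inhibition of human ESS-1 cells, read out by a cell viability assay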
Description: SANGER: Inhibition of human ESS-1 cell growth in a cell viability assay.

T-24 = format: functional, cell-based, Homo sapiens; details: Homo sapiens, T-24;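 further: growth inhibition of T-24 cells, read out with a cell viability assay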
Description: SANGER: Inhibition of human T-24 cell growth in a cell viability assay.

SW982 = format: functional, cell-based; details: Homo sapiens;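 further: growth inhibition of SW982 cells, read out with a cell viability assay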
Description: SANGER: Inhibition of human SW982 cell growth in a cell viability assay.

LU-139 = format: functional, cell-based; details: Homo sapiens
Description: SANGER: Inhibition of human LU-139 cell growth in a cell viability assay.

NCI-H2228 = format: functional, cell-based, Homo sapiens; details: Homo sapiens, NCI-H2228;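 further: growth inhibition of human NCI-H2228 cells, read out by a cell viability assay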
Description: SANGER: Inhibition of human NCI-H2228 cell growth in a cell viability assay.

ES7 = format: functional, cell-based, Homo sapiens; details: Homo sapiens, ES7;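 further: growth inhibition of cultured human ES7 cells, read out as cell viability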
Description: SANGER: Inhibition of human ES7 cell growth in a cell viability assay.

KINGS-1 = format: functional, cell-based, Homo sapiens; details: Homo sapiens, KINGS-1;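 further: cell viability assay measuring suppression of KINGS-1 cell growth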
Description: SANGER: Inhibition of human KINGS-1 cell growth in a cell viability assay.

NCI-H2052 = format: functional, cell-based, Homo sapiens; details: Homo sapiens, NCI-H2052;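 further: growth inhibition of NCI-H2052 cells, read out with a cell viability assay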
Description: SANGER: Inhibition of human NCI-H2052 cell growth in a cell viability assay.

**Q.** Which IC50 (NCI-H1648) does the source give for `Cc1ccc(Nc2nccc(N(C)c3ccc4c(C)n(C)nc4c3)n2)cc1S(N)(=O)=O` [PAZOPANIB] here?
**A.** > 8000 nM

**Q.** And the IC50 (S-117)?
**A.** 7580 nM

**Q.** What about the IC50 (TK-10) of the same compound?
**A.** > 8000 nM

**Q.** What about the IC50 (SK-PN-DW) of the same compound?
**A.** > 8000 nM

**Q.** What about the IC50 (MKN-1) of the same compound?
**A.** > 8000 nM

**Q.** What about the IC50 (NB6) of the same compound?
**A.** > 8000 nM

**Q.** What about the IC50 (NCI-H1755) of the same compound?
**A.** > 8000 nM

**Q.** What about the IC50 (NCI-H720) of the same compound?
**A.** > 8000 nM

**Q.** What about the IC50 (HCT-116) of the same compound?
**A.** > 8000 nM

**Q.** What about the IC50 (SK-HEP1) of the same compound?
**A.** > 8000 nM

**Q.** And the IC50 (HOS)?
**A.** > 8000 nM

**Q.** And the IC50 (NCI-H441)?
**A.** > 8000 nM

**Q.** And the IC50 (T47D)?
**A.** > 8000 nM

**Q.** What about the IC50 (ES5) of the same compound?
**A.** > 8000 nM

**Q.** And the IC50 (HMV-2 cell line)?
**A.** > 8000 nM

**Q.** And the IC50 (HOP-92)?
**A.** > 8000 nM

**Q.** And the IC50 (SHP77)?
**A.** > 8000 nM

**Q.** What about the IC50 (QIMR-WIL) of the same compound?
**A.** > 8000 nM

**Q.** What about the IC50 (KYSE-270) of the same compound?
**A.** > 8000 nM

**Q.** And the IC50 (SNU-5)?
**A.** > 8000 nM

**Q.** And the IC50 (CTB-1)?
**A.** > 8000 nM

**Q.** And the IC50 (GB-1)?
**A.** 5730 nM

**Q.** And the IC50 (HCC1954)?
**A.** > 8000 nM

**Q.** And the IC50 (GR-ST)?
**A.** > 8000 nM

**Q.** And the IC50 (SH-4)?
**A.** > 8000 nM

**Q.** What about the IC50 (NCI-H1155) of the same compound?
**A.** > 8000 nM

**Q.** And the IC50 (NCI-H1792)?
**A.** > 8000 nM

**Q.** What about the IC50 (TE-11) of the same compound?
**A.** > 8000 nM

**Q.** And the IC50 (SW1573)?
**A.** > 8000 nM

**Q.** And the IC50 (ACN)?
**A.** > 8000 nM

**Q.** What about the IC50 (HL-60) of the same compound?
**A.** > 8000 nM

**Q.** And the IC50 (no-11)?
**A.** > 8000 nM

**Q.** What about the IC50 (HCE-4) of the same compound?
**A.** > 8000 nM

**Q.** What about the IC50 (A388) of the same compound?
**A.** > 8000 nM

**Q.** What about the IC50 (MKN-7) of the same compound?
**A.** > 8000 nM

**Q.** What about the IC50 (Calu-3) of the same compound?
**A.** > 8000 nM

**Q.** What about the IC50 (COLO-792) of the same compound?
**A.** > 8000 nM

**Q.** And the IC50 (HEL)?
**A.** > 8000 nM

**Q.** What about the IC50 (GOTO) of the same compound?
**A.** > 8000 nM

**Q.** And the IC50 (BCPAP)?
**A.** > 8000 nM

**Q.** What about the IC50 (KP-4) of the same compound?
**A.** > 8000 nM

**Q.** What about the IC50 (SK-MEL-2) of the same compound?
**A.** > 8000 nM

**Q.** And the IC50 (NB12)?
**A.** > 8000 nM

**Q.** And the IC50 (NCI-H2122)?
**A.** > 8000 nM

**Q.** And the IC50 (ESS-1)?
**A.** 1600 nM

**Q.** What about the IC50 (T-24) of the same compound?
**A.** > 8000 nM

**Q.** And the IC50 (SW982)?
**A.** > 8000 nM

**Q.** What about the IC50 (LU-139) of the same compound?
**A.** > 8000 nM

**Q.** What about the IC50 (NCI-H2228) of the same compound?
**A.** > 8000 nM

**Q.** What about the IC50 (ES7) of the same compound?
**A.** > 8000 nM

**Q.** And the IC50 (KINGS-1)?
**A.** > 8000 nM

**Q.** And the IC50 (NCI-H2052)?
**A.** > 8000 nM

**Q.** For `CN(c1ncccc1CNc1nc(Nc2ccc3c(c2)CC(=O)N3)ncc1C(F)(F)F)S(C)(=O)=O` [PF-00562271], which IC50 (NCI-H1648) is on record?
**A.** > 2560 nM

**Q.** What about the IC50 (S-117) of the same compound?
**A.** > 2560 nM

**Q.** What about the IC50 (TK-10) of the same compound?
**A.** > 2560 nM

**Q.** What about the IC50 (SK-PN-DW) of the same compound?
**A.** > 2560 nM

**Q.** And the IC50 (MKN-1)?
**A.** > 2560 nM

**Q.** What about the IC50 (NB6) of the same compound?
**A.** > 2560 nM

**Q.** What about the IC50 (NCI-H1755) of the same compound?
**A.** > 2560 nM

**Q.** What about the IC50 (NCI-H720) of the same compound?
**A.** > 2560 nM

**Q.** And the IC50 (HCT-116)?
**A.** > 2560 nM

**Q.** What about the IC50 (SK-HEP1) of the same compound?
**A.** > 2560 nM

**Q.** What about the IC50 (HOS) of the same compound?
**A.** > 2560 nM

**Q.** And the IC50 (NCI-H441)?
**A.** > 2560 nM

**Q.** What about the IC50 (T47D) of the same compound?
**A.** > 2560 nM

**Q.** And the IC50 (ES5)?
**A.** > 2560 nM

**Q.** What about the IC50 (HMV-2 cell line) of the same compound?
**A.** > 2560 nM

**Q.** And the IC50 (HOP-92)?
**A.** 2310 nM

**Q.** What about the IC50 (SHP77) of the same compound?
**A.** > 2560 nM

**Q.** What about the IC50 (QIMR-WIL) of the same compound?
**A.** > 2560 nM

**Q.** And the IC50 (KYSE-270)?
**A.** 1050 nM

**Q.** What about the IC50 (SNU-5) of the same compound?
**A.** > 2560 nM

**Q.** And the IC50 (CTB-1)?
**A.** > 2560 nM

**Q.** What about the IC50 (GB-1) of the same compound?
**A.** > 2560 nM

**Q.** What about the IC50 (HCC1954) of the same compound?
**A.** > 2560 nM

**Q.** And the IC50 (GR-ST)?
**A.** > 2560 nM

**Q.** What about the IC50 (SH-4) of the same compound?
**A.** > 2560 nM

**Q.** And the IC50 (NCI-H1155)?
**A.** > 2560 nM

**Q.** And the IC50 (NCI-H1792)?
**A.** > 2560 nM

**Q.** And the IC50 (TE-11)?
**A.** 1640 nM

**Q.** And the IC50 (SW1573)?
**A.** > 2560 nM

**Q.** And the IC50 (ACN)?
**A.** 2350 nM

**Q.** And the IC50 (HL-60)?
**A.** > 2560 nM

**Q.** What about the IC50 (no-11) of the same compound?
**A.** > 2560 nM

**Q.** And the IC50 (HCE-4)?
**A.** > 2560 nM

**Q.** And the IC50 (A388)?
**A.** > 2560 nM

**Q.** And the IC50 (MKN-7)?
**A.** > 2560 nM

**Q.** And the IC50 (Calu-3)?
**A.** > 2560 nM

**Q.** And the IC50 (COLO-792)?
**A.** > 2560 nM

**Q.** What about the IC50 (HEL) of the same compound?
**A.** > 2560 nM

**Q.** What about the IC50 (GOTO) of the same compound?
**A.** > 2560 nM

**Q.** And the IC50 (BCPAP)?
**A.** 1010 nM

**Q.** What about the IC50 (KP-4) of the same compound?
**A.** > 2560 nM

**Q.** What about the IC50 (SK-MEL-2) of the same compound?
**A.** > 2560 nM

**Q.** What about the IC50 (NB12) of the same compound?
**A.** > 2560 nM

**Q.** And the IC50 (NCI-H2122)?
**A.** > 2560 nM

**Q.** And the IC50 (ESS-1)?
**A.** > 2560 nM

**Q.** What about the IC50 (T-24) of the same compound?
**A.** > 2560 nM

**Q.** And the IC50 (SW982)?
**A.** 328 nM

**Q.** What about the IC50 (LU-139) of the same compound?
**A.** > 2560 nM

**Q.** And the IC50 (NCI-H2228)?
**A.** > 2560 nM

**Q.** And the IC50 (ES7)?
**A.** > 2560 nM

**Q.** And the IC50 (KINGS-1)?
**A.** > 2560 nM

**Q.** What about the IC50 (NCI-H2052) of the same compound?
**A.** > 2560 nM
